≈ marks a conversion by molar mass, not a printed value. Like-named read-outs stand apart in the source and are kept apart here. Residues, ends and D or L forms follow the SMILES beside them.
How the values were obtained:
A. baumannii AB5075 [1] = assay: Transcriptomic analysis (RNA-Seq) of bacteria; type: cell-based, Acinetobacter baumannii
Experimental: Mid-log phase A. baumannii AB5075 (~10^8 CFU/mL) in CaMHB was treated with colistin (2 and 8 μg/mL), F287, F319 or F365 (equimolar concentration to colistin) for 1 and 4 h. Total RNA was extracted using TRIzol Reagent (Invitrogen, USA) and RNeasy Mini Kit (Qiagen, Germany). Quality check of RNA samples was conducted with NanoDrop (Thermo Fisher Scientific, USA) and Agilent 2100 Bioanalyzer (Agilent Technologies, USA) for sequencing (150 bp paired-end) at Genewiz (Shanghai, China). Raw reads were aligned to A. baumannii AB5075 genome (GCF_000963815, https://www.ncbi.nlm.nih.gov/assembly/GCF_000963815.1/) using subread-aligner (subread 2.0.1) and summarized by featureCounts (subread 2.0.1). Principal component analysis (PCA) was conducted with mixOmics 6.14.1 in R. Differentially expressed genes were determined using limma 3.46.0 with a combination of fold change ≥ 2 and false discovery rate (FDR, by Benjamini–Hochberg algorithm) adjusted P-value ≤ 0.05 (n = 3). Enrichment analysis of gene differential expression in AB5075 was conducted using BioCyc (A. baumannii AB5075, version 25.5). UpSetR 1.4.0, ComplexHeatmap 2.6.2 and circlize 0.4.13 were used for data visualization. Raw data were deposited in Short Reads Archive (SRA) database under accession numbers SRR15235669-SRR15235725.

A. baumannii FADDI-AB030 = type: cell-based, Acinetobacter baumannii; conditions: FADDI-AB030
Method in brief: (§1)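 Each strain is tested in cation-adjusted Mueller–Hinton broth using the micro-dilution technique, and growth inhibition gives the MIC.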

A. baumannii ATCC 19606 = type: cell-based, Acinetobacter baumannii; conditions: ATCC 19606
Method in brief: as §1

[2] = tested on: MDR clinical isolates of A. baumannii (n = 210, 200 carbapenem-resistant); type: cell-based, Acinetobacter baumannii
Method in brief: (§2)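 Cation-adjusted Mueller–Hinton broth was used with the broth microdilution method to set MICs against clinical isolates. A separate run on P. aeruginosa ATCC 27853 added 10% Survanta® (v/v, 2.5 mg/mL phospholipids) to gauge lung-surfactant binding of polymyxins.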

A. baumannii AB5075 [3] = type: cell-based, Acinetobacter baumannii; conditions: AB5075
Method in brief: as §1

A. baumannii FADDI-AB034 = type: cell-based, Acinetobacter baumannii; conditions: FADDI-AB034
Method in brief: as §1

[4] = tested on: P. aeruginosa FADDI-PA038; type: cell-based, Pseudomonas aeruginosa; conditions: FADDI-PA038
Method in brief: as §1

[5] = tested on: MDR clinical isolates of P. aeruginosa (n = 213, 55 carbapenem-resistant); type: cell-based, Pseudomonas aeruginosa
Method in brief: as §2

[6] = tested on: P. aeruginosa FADDI-PA025; type: cell-based, Pseudomonas aeruginosa; conditions: FADDI-PA025
Method in brief: as §1

P. aeruginosa ATCC 27853 = type: cell-based, Pseudomonas aeruginosa; conditions: ATCC 27853
Method in brief: as §1

[7] = L vs Cont, 4h, pathway Fatty Acid and Lipid Degradation
[8] = L, 4h vs 1h, RNA-Seq A. baumannii AB5075
[9] = MDR clinical isolates of (n = 210, 200 carbapenem-resistant)
[10] = MDR clinical isolates of (n = 213, 55 carbapenem-resistant)

**Q.** CCCCCCCC(=O)N[C@@H](CCN)C(=O)N[C@H](C(=O)N[C@@H](CN)C(=O)N[C@H]1CCNC(=O)[C@H]([C@@H](C)O)NC(=O)[C@H](CCN)NC(=O)[C@H](CCN)NC(=O)[C@H](CC)NC(=O)[C@@H](CC(C)C)NC(=O)[C@H](CCN)NC1=O)[C@@H](C)O [Lipopeptide F287] (HELM PEPTIDE1{[CCCCCCCC(=O)[*:2]].[Dab].T.[NC[C@H](N[*:1])C(=O)[*:2]].[Dab].[Dab].[dL].[Abu].[Dab].[Dab].T}$PEPTIDE1,PEPTIDE1,5:R3-11:R2$$$V2.0) was tested. Which “log2FC, gene ABUW_RS05045 (acyl-CoA thioesterase)” value (A. baumannii AB5075 [1]; [7]) did it give?
**A.** 0.3557

**Q.** And the “log2FC, gene ABUW_RS17575 (acyl-CoA thioesterase)” value (A. baumannii AB5075 [1]; [7])?
**A.** -0.4747

**Q.** And the “4h_1h logFC (Differential gene expression for all genes), Geneid ABUW_RS00005” value (A. baumannii AB5075 [1]; [8])?
**A.** -0.01752

**Q.** And the “4h_1h logFC (Differential gene expression for all genes), Geneid ABUW_RS00010” value (A. baumannii AB5075 [1]; [8])?
**A.** -0.721

**Q.** And the “4h_1h logFC (Differential gene expression for all genes), Geneid ABUW_RS00015” value (A. baumannii AB5075 [1]; [8])?
**A.** 0.1845

**Q.** What about the “4h_1h logFC (Differential gene expression for all genes), Geneid ABUW_RS00020” value (A. baumannii AB5075 [1]; [8]) of the same molecule?
**A.** -0.0476

**Q.** What about the “MIC A. baumannii FADDI-AB030” value (A. baumannii FADDI-AB030) of the same molecule?
**A.** 0.25 µg/mL (≈ 0.225 µM)

**Q.** And the “MIC A. baumannii ATCC 19606” value (A. baumannii ATCC 19606)?
**A.** 0.25 µg/mL (≈ 0.225 µM)

**Q.** What about the MIC50 [2, 9] of the same molecule?
**A.** 0.25 µg/mL (≈ 0.225 µM)

**Q.** And the MIC90 [2, 9]?
**A.** 0.5 µg/mL (≈ 0.449 µM)

**Q.** What about the “potency relative to polymyxin B” value ([2]; MIC50/MIC90, A. baumannii panel) of the same molecule?
**A.** up to 8 fold

**Q.** And the Number of isolates ([2]; isolates with MIC 0.05 µg/mL)?
**A.** 0

**Q.** What about the Number of isolates ([2]; isolates with MIC 0.125 µg/mL) of the same molecule?
**A.** 15

**Q.** What about the Number of isolates ([2]; isolates with MIC 0.25 µg/mL) of the same molecule?
**A.** 126

**Q.** And the Number of isolates ([2]; isolates with MIC 0.5 µg/mL)?
**A.** 54

**Q.** And the Number of isolates ([2]; isolates with MIC 1 µg/mL)?
**A.** 8

**Q.** What about the Number of isolates ([2]; isolates with MIC 2 µg/mL) of the same molecule?
**A.** 2

**Q.** What about the Number of isolates ([2]; isolates with MIC 4 µg/mL) of the same molecule?
**A.** 0

**Q.** And the Number of isolates ([2]; isolates with MIC 8 µg/mL)?
**A.** 1

**Q.** What about the Number of isolates ([2]; isolates with MIC 16 µg/mL) of the same molecule?
**A.** 0

**Q.** What about the Number of isolates ([2]; isolates with MIC 32 µg/mL) of the same molecule?
**A.** 0

**Q.** And the Number of isolates ([2]; isolates with MIC 64 µg/mL)?
**A.** 1

**Q.** And the Number of isolates ([2]; isolates with MIC >64 µg/mL)?
**A.** 0

**Q.** What about the “MIC A. baumannii AB5075” value (A. baumannii AB5075 [3]) of the same molecule?
**A.** 0.5 µg/mL (≈ 0.449 µM)

**Q.** What about the “MIC A. baumannii FADDI-AB034” value (A. baumannii FADDI-AB034) of the same molecule?
**A.** <0.125 µg/mL

**Q.** And the “MIC P. aeruginosa FADDI-PA038” value [4]?
**A.** 0.5 µg/mL (≈ 0.449 µM)

**Q.** And the MIC50 [5, 10]?
**A.** 1 µg/mL (≈ 0.898 µM)

**Q.** And the MIC90 [5, 10]?
**A.** 1 µg/mL (≈ 0.898 µM)

**Q.** What about the Number of isolates ([5]; isolates with MIC 0.05 μg/mL (so in the source)) of the same molecule?
**A.** 0

**Q.** What about the Number of isolates ([5]; isolates with MIC 0.125 μg/mL (so in the source)) of the same molecule?
**A.** 0

**Q.** What about the Number of isolates ([5]; isolates with MIC 0.25 μg/mL (so in the source)) of the same molecule?
**A.** 7

**Q.** What about the Number of isolates ([5]; isolates with MIC 0.5 μg/mL (so in the source)) of the same molecule?
**A.** 26

**Q.** And the Number of isolates ([5]; isolates with MIC 1 μg/mL (so in the source))?
**A.** 168

**Q.** And the Number of isolates ([5]; isolates with MIC 2 μg/mL (so in the source))?
**A.** 9

**Q.** And the Number of isolates ([5]; isolates with MIC 4 μg/mL (so in the source))?
**A.** 0

**Q.** What about the Number of isolates ([5]; isolates with MIC 8 μg/mL (so in the source)) of the same molecule?
**A.** 1

**Q.** And the Number of isolates ([5]; isolates with MIC 16 μg/mL (so in the source))?
**A.** 0

**Q.** And the Number of isolates ([5]; isolates with MIC 32 μg/mL (so in the source))?
**A.** 2

**Q.** And the Number of isolates ([5]; isolates with MIC 64 μg/mL (so in the source))?
**A.** 0

**Q.** And the Number of isolates ([5]; isolates with MIC >64 μg/mL (so in the source))?
**A.** 0

**Q.** And the “MIC P. aeruginosa FADDI-PA025” value [6]?
**A.** 2 µg/mL (≈ 1.8 µM)

**Q.** What about the “MIC P. aeruginosa ATCC 27853” value (P. aeruginosa ATCC 27853) of the same molecule?
**A.** 0.5 µg/mL (≈ 0.449 µM)

**Q.** And the MIC, No Survanta (P. aeruginosa ATCC 27853)?
**A.** 1 µg/mL (≈ 0.898 µM)

Reference: PMC8956739, “A synthetic lipopeptide targeting top-priority multidrug-resistant Gram-negative pathogens” (Nature Communications, 2022)
